Earlier results, collected in patent US8815261B2 (priority 2009, dated 2014).
Like-named read-outs stand apart in the source and are kept apart here.

Structure (SMILES)	logP calculated value of organic acid (PubChem value, as in Example 2 (Table 4))	logP calculated value of organic acid (PubChem value (revised on February, 2009))
O=S(=O)(O)c1ccccc1 [benzenesulfonic acid]	0	–
CC(=O)CCC(=O)O [levulinic acid]	–	−0.5
